Measured values: US10285979B2, “Breast cancer therapeutic agent containing 5′-hydroxy-5-nitro-indirubin-3′-oxime as active ingredient” (ANYGEN CO., LTD., priority 2016, dated 2019)
Like-named read-outs stand apart in the source and are kept apart here.

Tests used:
786-0 = details: 10 μM; renal cell carcinoma cell line 786-0
From the text: (§1) If the growth percent is 0%, it means that no further growth of cancer cells occurs, which is an ideal case.

A549/ATCC = details: 10 μM; non-small cell lung cancer cell line A549/ATCC
From the text: as §1

HCC-2998 = details: 10 μM; colorectal cancer cell line HCC-2998
From the text: as §1

HCT-116 = details: 10 μM; colorectal cancer cell line HCT-116
From the text: as §1

MDA-MB-231 = details: 10 μM; breast cancer cell line MDA-MB-231
From the text: as §1

SK-OV-3 = details: 10 μM; ovarian cancer cell line SK-OV-3
From the text: as §1

SNB-19 = details: 10 μM; CNS cancer cell line SNB-19
From the text: as §1

SW-620 = details: 10 μM; colorectal cancer cell line SW-620
From the text: as §1

U251 = details: 10 μM; CNS cancer cell line U251
From the text: as §1

UO-31 = details: 10 μM; renal cell carcinoma cell line UO-31
From the text: as §1

[1] = Method: Chemical name (IUPAC) of AGM-130 is (2′Z 3′E)-5′-hydroxy-5-nitro indirubin oxime. […] For the practical formulation of injectable aqueous solution, AGM-130 in PEG300 solution is diluted with 0.1 N Na2CO3 in saline solution to 70% aqueous solution with final concentration of 3.75 mg/mL.
[2] = tested on: MCF-7 ER positive breast cancer cells
From the text: (§2) The tumor volume and shape in the nude mouse have been observed for 24 days.

[3] = tested on: KB oral cavity cancer cells
Method: The tumor has been grown after injecting KB oral cavity cancer cells (10×10^6 cells/0.1 ml of non-serum matrigel medium) to the nude mouse. […] The tumor growth has been observed for 28 days.
The tumor volume and shape in the nude mouse have been observed for 28 days.

[4] = tested on: HCT-116 colorectal cancer cells; details: 10 mg/kg intraperitoneally every other day
Method: The tumor has been grown after injecting HCT-116 colorectal cancer cells (10×10^6 cells/0.1 ml of non-serum matrigel medium) to the nude mouse.
as §2

A549 lung cancer cells = tested on: A549 lung cancer cells
From the text: The tumor has been grown after injecting A549 lung cancer cells to the nude mouse. […] The tumor growth has been observed for 27 days.
The tumor volume and shape in the nude mouse have been observed for 27 days.

HL-60(TB) = details: 10 μM; leukemia cell line HL-60(TB)
[5] = tested on: Her2 positive breast cancer cell lines; details: 4 types of Her2 positive breast cancer cell lines
[6] = tested on: ER positive breast cancer cell lines; details: 3 types of ER positive breast cancer cell lines
[7] = tested on: MDA-MB-231 triple negative breast cancer cells
From the text: After implanting MDA-MB-231 triple negative breast cancer cells to the nude mouse, the tumor has been grown to the 200 mm^3 volume. […] The tumor growth has been observed for 27 days.

[8] = tested on: A549 human non-small cell lung cancer cells; details: cited from earlier work
[9] = tested on: transplanted A549 cell tumor; details: in vivo; cited from earlier work

What does the source list for O=C1Nc2ccc([N+](=O)[O-])cc2C1=C1Nc2ccc(O)cc2C1=NO [AGM-130, (2′Z 3′E)-5′-hydroxy-5-nitro indirubin oxime]?
Growth percent (786-0): 4.21%; Growth percent (A549/ATCC): 10.64%; Growth percent (HCC-2998): 8.93%; Growth percent (HCT-116): 2.29%; Growth percent (MDA-MB-231): 25.45%; Growth percent (SK-OV-3): −9.52%; Growth percent (SNB-19): 17.47%; Growth percent (SW-620): 3.18%; Growth percent (U251): 0.60%; Growth percent (UO-31): −1.14%; solubility ([1]; in DMF and DMSO): soluble; solubility ([1]; in ethanol and acetone): very difficult to dissolve; solubility ([1]; in water): practically insoluble; tumor volume reduction compared to control group ([2]; 3 mg/kg intravenously): about 49%; volume of tumor ([2]; 3 mg/kg intravenously once a week, day 0): 131.9 ± 8.6; volume of tumor ([2]; 3 mg/kg intravenously once a week, day 3): 167.5 ± 7.1; volume of tumor ([2]; 3 mg/kg intravenously once a week, day 6): 182.3 ± 4.2; volume of tumor ([2]; 3 mg/kg intravenously once a week, day 9): 253.3 ± 7.9; volume of tumor ([2]; 3 mg/kg intravenously once a week, day 12): 311.9 ± 2.3; volume of tumor ([2]; 3 mg/kg intravenously once a week, day 15): 337.5 ± 11.0; volume of tumor ([2]; 3 mg/kg intravenously once a week, day 18): 359.8 ± 15.6; volume of tumor ([2]; 3 mg/kg intravenously once a week, day 21): 408.2 ± 19.0; volume of tumor ([2]; 3 mg/kg intravenously once a week, day 24): 434.5 ± 18.3; tumor volume reduction compared to control group ([2]; 7 mg/kg intravenously): about 64%; volume of tumor ([2]; 7 mg/kg intravenously once a week, day 0): 129.1 ± 3.8; volume of tumor ([2]; 7 mg/kg intravenously once a week, day 3): 166.9 ± 7.4; volume of tumor ([2]; 7 mg/kg intravenously once a week, day 6): 190.0 ± 6.3; volume of tumor ([2]; 7 mg/kg intravenously once a week, day 9): 205.6 ± 11.4; volume of tumor ([2]; 7 mg/kg intravenously once a week, day 12): 235.6 ± 7.1; volume of tumor ([2]; 7 mg/kg intravenously once a week, day 15): 267.3 ± 9.4; volume of tumor ([2]; 7 mg/kg intravenously once a week, day 18): 288.1 ± 6.2; volume of tumor ([2]; 7 mg/kg intravenously once a week, day 21): 300.2 ± 15.4; volume of tumor ([2]; 7 mg/kg intravenously once a week, day 24): 310.1 ± 18.2; tumor volume reduction compared to control group ([2]; 14 mg/kg intravenously): about 69%; volume of tumor ([2]; 14 mg/kg intravenously once a week, day 0): 127.8 ± 2.4; volume of tumor ([2]; 14 mg/kg intravenously once a week, day 3): 156.8 ± 4.7; volume of tumor ([2]; 14 mg/kg intravenously once a week, day 6): 180.6 ± 5.0; volume of tumor ([2]; 14 mg/kg intravenously once a week, day 9): 202.9 ± 3.8; volume of tumor ([2]; 14 mg/kg intravenously once a week, day 12): 210.6 ± 5.1; volume of tumor ([2]; 14 mg/kg intravenously once a week, day 15): 234.7 ± 17.8; volume of tumor ([2]; 14 mg/kg intravenously once a week, day 18): 249.4 ± 15.3; volume of tumor ([2]; 14 mg/kg intravenously once a week, day 21): 264.8 ± 12.9; volume of tumor ([2]; 14 mg/kg intravenously once a week, day 24): 268.7 ± 8.7; volume of tumor ([3]; 5/10/20 mg/kg intraperitoneally every other day, FIG. 11): cannot be reduced significantly; reduction of volume of tumor compared to paclitaxel ([3]; paclitaxel 10 mg/kg positive control): cannot result in significant reduction; volume of tumor ([4]; FIG. 12): cannot be reduced significantly; volume of tumor ([4]; FIG. 13): cannot be reduced significantly; volume of tumor (A549 lung cancer cells; 10/20/40 mg/kg intraperitoneally every other day, FIG. 14): cannot be reduced significantly; weight of tumor (A549 lung cancer cells; 10/20/40 mg/kg intraperitoneally, FIG. 15a): cannot be reduced significantly; apoptosis in tumor (TUNEL assay) (A549 lung cancer cells; paraffin embedded tumor region, compared to vehicle, FIG. 15b): induces the apoptosis; Growth percent (HL-60(TB)): 3.67%; IC50 [5]: > 3 µM; IC50 [6]: < 1 µM; tumor volume reduction compared to control group ([7]; 10 mg/kg intraperitoneally): about 40%; volume of tumor, Mean ± S.E. ([7]; 10 mg/kg intraperitoneally twice a week, day 0): 268.0 ± 6.1; volume of tumor, Mean ± S.E. ([7]; 10 mg/kg intraperitoneally twice a week, day 3): 369.7 ± 5.0; volume of tumor, Mean ± S.E. ([7]; 10 mg/kg intraperitoneally twice a week, day 6): 474.3 ± 6.6; volume of tumor, Mean ± S.E. ([7]; 10 mg/kg intraperitoneally twice a week, day 9): 634.9 ± 36.2; volume of tumor, Mean ± S.E. ([7]; 10 mg/kg intraperitoneally twice a week, day 12): 813.5 ± 29.0; volume of tumor, Mean ± S.E. ([7]; 10 mg/kg intraperitoneally twice a week, day 15): 985.6 ± 44.8; volume of tumor, Mean ± S.E. ([7]; 10 mg/kg intraperitoneally twice a week, day 18): 1095.7 ± 54.2; volume of tumor, Mean ± S.E. ([7]; 10 mg/kg intraperitoneally twice a week, day 21): 1119.8 ± 57.7; volume of tumor, Mean ± S.E. ([7]; 10 mg/kg intraperitoneally twice a week, day 24): 1242.1 ± 76.0; volume of tumor, Mean ± S.E. ([7]; 10 mg/kg intraperitoneally twice a week, day 27): 1484.9 ± 86.8; tumor volume reduction compared to control group ([7]; 20 mg/kg intraperitoneally): about 64%; volume of tumor, Mean ± S.E. ([7]; 20 mg/kg intraperitoneally twice a week, day 0): 248.0 ± 11.0; volume of tumor, Mean ± S.E. ([7]; 20 mg/kg intraperitoneally twice a week, day 3): 295.4 ± 22.0; volume of tumor, Mean ± S.E. ([7]; 20 mg/kg intraperitoneally twice a week, day 6): 364.9 ± 23.5; volume of tumor, Mean ± S.E. ([7]; 20 mg/kg intraperitoneally twice a week, day 9): 457.4 ± 47.3; volume of tumor, Mean ± S.E. ([7]; 20 mg/kg intraperitoneally twice a week, day 12): 559.5 ± 56.2; volume of tumor, Mean ± S.E. ([7]; 20 mg/kg intraperitoneally twice a week, day 15): 623.4 ± 51.5; volume of tumor, Mean ± S.E. ([7]; 20 mg/kg intraperitoneally twice a week, day 18): 668.5 ± 56.8; volume of tumor, Mean ± S.E. ([7]; 20 mg/kg intraperitoneally twice a week, day 21): 767.2 ± 106.7; volume of tumor, Mean ± S.E. ([7]; 20 mg/kg intraperitoneally twice a week, day 24): 833.1 ± 139.7; volume of tumor, Mean ± S.E. ([7]; 20 mg/kg intraperitoneally twice a week, day 27): 894.2 ± 151.6; tumor volume reduction compared to control group ([7]; 40 mg/kg intraperitoneally): about 70%; volume of tumor, Mean ± S.E. ([7]; 40 mg/kg intraperitoneally twice a week, day 0): 253.1 ± 8.5; volume of tumor, Mean ± S.E. ([7]; 40 mg/kg intraperitoneally twice a week, day 3): 313.3 ± 9.7; volume of tumor, Mean ± S.E. ([7]; 40 mg/kg intraperitoneally twice a week, day 6): 327.5 ± 19.1; volume of tumor, Mean ± S.E. ([7]; 40 mg/kg intraperitoneally twice a week, day 9): 372.4 ± 8.3; volume of tumor, Mean ± S.E. ([7]; 40 mg/kg intraperitoneally twice a week, day 12): 444.8 ± 7.3; volume of tumor, Mean ± S.E. ([7]; 40 mg/kg intraperitoneally twice a week, day 15): 481.9 ± 39.1; volume of tumor, Mean ± S.E. ([7]; 40 mg/kg intraperitoneally twice a week, day 18): 532.7 ± 27.6; volume of tumor, Mean ± S.E. ([7]; 40 mg/kg intraperitoneally twice a week, day 21): 620.1 ± 45.2; volume of tumor, Mean ± S.E. ([7]; 40 mg/kg intraperitoneally twice a week, day 24): 686.2 ± 85.6; volume of tumor, Mean ± S.E. ([7]; 40 mg/kg intraperitoneally twice a week, day 27): 730.8 ± 73.9; tumor volume reduction compared to control group ([7]; control group paclitaxel (5 mg/kg)): about 14%; cell cycle [8]: arrests the cell cycle of G2/M phase; proliferation [8]: significantly inhibits the proliferation; tumor growth [9]: dose-dependently suppresses
